# Experimental data published in patent US11203577B2, “Sulfonyl-structure-containing triazinone derivatives, their preparation methods and their uses in insect killing and/or bacterium killing” (Nankai University, priority 2017, dated 2021).
# Where two headings read alike, the source gives them in different places.
# How the values were obtained:
# Cucumber fusarium wilt = test: In vitro fungicidal activity, PDA colony diameter; format: cell-based; conditions: 96 h, 50 mg/kg, inhibition of colony diameter, read-out: Fungicidal activity (%) Cucumber fusarium wilt
# [1] = tested on: Cercospora brown spot of peanut; test: In vitro fungicidal activity, PDA colony diameter; format: cell-based; conditions: 96 h, 50 mg/kg, inhibition of colony diameter, read-out: Fungicidal activity (%) Cercospora brown spot of peanut
# Tomato early blight = test: In vitro fungicidal activity, PDA colony diameter; format: cell-based, Alternaria solani; conditions: read-out: Fungicidal activity (%) Tomato early blight
# Wheat head blight = test: whole plant or invertebrate; format: cell-based; conditions: Triticum aestivum, read-out: Fungicidal activity (%) Wheat head blight
# Rice bakanae disease = test: In vitro fungicidal activity, PDA colony diameter; format: cell-based; conditions: 50 mg/kg, inhibition of colony diameter; read-out: Fungicidal activity (%) Rice bakanae disease
# Sclerotinia rot of colza = test: In vitro fungicidal activity, PDA colony diameter; format: cell-based; conditions: 96 h, 50 mg/kg, inhibition of colony diameter, read-out: Fungicidal activity (%) Sclerotinia rot of colza
# Apple ring rot = test: In vitro fungicidal activity, PDA colony diameter; format: cell-based; conditions: inhibition of colony diameter
# Experimental: (§1) Here, the test is described in an example of Alternaria solani; it can be replaced by other fungi.
# (§2) In vitro testing method: Alternaria solani is inoculated to a PDA culture medium and cultured for 7 days, a fungus dish with a diameter of […] is prepared on the periphery of the colony with a punch and inoculated to a PDA culture medium that contains pesticide at a concentration of 50 mg/kg and a PDA culture medium that doesn't contain the pesticide, and are cultured for 4 days respectively; then, the colony diameters are measured, and the inhibition percentages of the pesticides are calculated by comparing with the control sample.
# [2] = tested on: Capsicum phytophthora blight; test: In vitro fungicidal activity, PDA colony diameter; format: cell-based; conditions: 96 h
# Experimental: as §1, §2
# Wheat sheath blight = test: In vitro fungicidal activity, PDA colony diameter; format: cell-based; conditions: 50 mg/kg, inhibition of colony diameter; read-out: Fungicidal activity (%) Wheat sheath blight
# [3] = tested on: Corn southern leaf blight; test: In vitro fungicidal activity, PDA colony diameter; format: cell-based; conditions: 50 mg/kg, inhibition of colony diameter; read-out: Fungicidal activity (%) Corn southern leaf blight
# Watermelon anthracnose = test: In vitro fungicidal activity, PDA colony diameter; format: cell-based; conditions: 50 mg/kg, inhibition of colony diameter; read-out: Fungicidal activity (%) Watermelon anthracnose
# Potato late blight = test: microbe, parasite or virus in culture; format: cell-based; conditions: Phytophthora infestans, 96 h, read-out: Fungicidal activity (%) Potato late blight
# Rice sheath blight = test: In vitro fungicidal activity, PDA colony diameter; format: cell-based; conditions: 50 mg/kg, inhibition of colony diameter; read-out: Fungicidal activity (%) Rice sheath blight
# Armyworms = test: Test of insecticidal activity against armyworms (leaf immersion); conditions: 600 mg/kg, 3-4 days
# Maize borers = test: Test of insecticidal activity against maize borers (leaf immersion); conditions: read-out: Mortalities (%) Maize borers
# [4] = tested on: mosquito larvae (Culer pipiens pallens); test: Test of insecticidal activity against mosquito larvae (checked after 24 h); conditions: 24 h, read-out: Mortalities (%) against mosquito larvae
# Experimental: Method of testing against mosquito larvae: the tested mosquito larvae are Culer pipiens pallens, a normal colony fed indoor. About 5 mg compound to be tested is weighed and loaded into a penicillin vial, 5 mL acetone (or an appropriate solvent) is added into the vial, and the vial is oscillated to dissolve the compound; thus, 1,000 ppm mother liquid is obtained. 1 mL mother liquid is weighed and added into a 100 mL beaker filled with 89 mL water, 10 mosquito larvae in the early stage of the 4th instar together with 10 mL feeding solution are poured into the beaker; thus, the concentration of the pesticide solution is 10 ppm (the pesticide solutions with other concentrations are attained by diluting the mother liquid by corresponding times). […] Water solution that contains 0.5 mL test solvent is used as a blank sample.
# [5] = tested on: bean aphides (Aphis laburni Kaltenbach); test: Test of insecticidal activity against aphides (leaf immersion, checked after 96 h); conditions: Aphis, 96 h, read-out: Mortalities (%) against aphides
# Experimental: The insecticidal activity against aphides is tested through the following steps: the tested aphides are bean aphides (Aphis laburni Kaltenbach), a normal colony fed with broad bean leaves in a laboratory. The pesticide is weighed, 1 mL DMF is added to dissolve the pesticide, then two drops of emulsifier, Tween-20 are added, and distilled water is added in an appropriate amount; the mixture is stirred to a homogeneous state to prepare pesticide solution at required concentration (see the following table for the specific concentration). […] In a control group, only emulsifier and solvent are added into distilled water, and the mixture is stirred to a homogeneous state.
# Cotton bollworms = test: Test of insecticidal activity against cotton bollworms (pesticide mixed into feedstuff); conditions: read-out: Mortalities (%) Cotton bollworms
# Experimental: Method of testing against cotton bollworms: the pesticide is mixed into the feedstuff, i.e., 3 mL prepared solution is added into about 27 g freshly prepared feedstuff; thus, required concentration is obtained by diluting by 10 times.
# [6] = 50 mg/kg, inhibition of colony diameter
smiles,measurement,setting,value
"COC(=O)Nc1nc2ccccc2[nH]1 [Carbendazim, reference compound]",inhibition of growth at 50 mg/kg,Cucumber fusarium wilt,< 50%
same,inhibition of growth at 50 mg/kg,[1],< 50%
same,inhibition at 50 mg/kg,Tomato early blight; [6],< 50%
same,inhibition at 50 mg/kg,Wheat head blight,100%
same,inhibition at 50 mg/kg,Rice bakanae disease,< 50%
same,inhibition of growth at 50 mg/kg,Sclerotinia rot of colza,100%
same,inhibition at 50 mg/kg,Apple ring rot,< 50%
same,inhibition of growth at 50 mg/kg,[2],< 50%
same,inhibition at 50 mg/kg,Wheat sheath blight,100%
same,inhibition at 50 mg/kg,[3],100%
same,inhibition at 50 mg/kg,Watermelon anthracnose,100%
same,inhibition of growth at 50 mg/kg,Potato late blight,100%
same,inhibition at 50 mg/kg,Rice sheath blight,100%
"N#Cc1c(Cl)c(Cl)c(Cl)c(C#N)c1Cl [Chlorothalonil, reference compound]",inhibition of growth at 50 mg/kg,Cucumber fusarium wilt,100%
same,inhibition of growth at 50 mg/kg,[1],73.3%
same,inhibition at 50 mg/kg,Tomato early blight; [6],73.3%
same,inhibition at 50 mg/kg,Wheat head blight,< 50%
same,inhibition at 50 mg/kg,Rice bakanae disease,100%
same,inhibition of growth at 50 mg/kg,Sclerotinia rot of colza,< 50%
same,inhibition at 50 mg/kg,Apple ring rot,100%
same,inhibition of growth at 50 mg/kg,[2],100%
same,inhibition at 50 mg/kg,Wheat sheath blight,100%
same,inhibition at 50 mg/kg,[3],91.3%
same,inhibition at 50 mg/kg,Watermelon anthracnose,91.3%
same,inhibition of growth at 50 mg/kg,Potato late blight,86.4%
same,inhibition at 50 mg/kg,Rice sheath blight,100%
"CC1=NNC(=O)N(NS(C)(=O)=O)C1 [Ia-1, N-(6-methyl-3-oxo-2,3-dihydro-1,2,4-triazin-4(5H)-yl)-methylsulfonylamide]",inhibition of growth at 50 mg/kg,Cucumber fusarium wilt,0%
same,inhibition of growth at 50 mg/kg,[1],26.3%
same,inhibition at 50 mg/kg,Tomato early blight; [6],9.5%
same,inhibition at 50 mg/kg,Wheat head blight,13.3%
same,inhibition at 50 mg/kg,Rice bakanae disease,27.8%
same,inhibition of growth at 50 mg/kg,Sclerotinia rot of colza,31.7%
same,inhibition at 50 mg/kg,Apple ring rot,31%
same,inhibition of growth at 50 mg/kg,[2],46.9%
same,inhibition at 50 mg/kg,Wheat sheath blight,63.6%
same,inhibition at 50 mg/kg,[3],20.8%
same,inhibition at 50 mg/kg,Watermelon anthracnose,20.8%
same,inhibition of growth at 50 mg/kg,Potato late blight,33.3%
same,inhibition at 50 mg/kg,Rice sheath blight,11.1%
same,Mortalities (%) Armyworms,Armyworms,5%
same,mortality at 600 mg/kg,Maize borers,0%
same,mortality at 10 mg/kg,[4],55%
same,mortality at 5 mg/kg,[5],25%
same,mortality at 10 mg/kg,[5],100%
same,mortality at 100 mg/kg,[5],100%
same,mortality at 600 mg/kg,[5],100%
same,mortality at 600 mg/kg,Cotton bollworms,40%
"CCS(=O)(=O)NN1CC(C)=NNC1=O [Ia-2, N-(6-methyl-3-oxo-2,3-dihydro-1,2,4-triazin-4(5H)-yl)-ethylsulfonamide]",inhibition of growth at 50 mg/kg,Cucumber fusarium wilt,5%
same,inhibition of growth at 50 mg/kg,[1],15.8%
same,inhibition at 50 mg/kg,Tomato early blight; [6],33.3%
same,inhibition at 50 mg/kg,Wheat head blight,20%
same,inhibition at 50 mg/kg,Rice bakanae disease,50%
same,inhibition of growth at 50 mg/kg,Sclerotinia rot of colza,56.7%
same,inhibition at 50 mg/kg,Apple ring rot,20.7%
same,inhibition of growth at 50 mg/kg,[2],36.7%
same,inhibition at 50 mg/kg,Wheat sheath blight,63.6%
same,inhibition at 50 mg/kg,[3],29.2%
same,inhibition at 50 mg/kg,Watermelon anthracnose,33.3%
same,inhibition of growth at 50 mg/kg,Potato late blight,22.2%
same,inhibition at 50 mg/kg,Rice sheath blight,34.9%
same,Mortalities (%) Armyworms,Armyworms,10%
same,mortality at 600 mg/kg,Maize borers,15%
same,mortality at 10 mg/kg,[4],20%
same,mortality at 10 mg/kg,[5],50%
same,mortality at 100 mg/kg,[5],90%
same,mortality at 600 mg/kg,[5],100%
same,mortality at 600 mg/kg,Cotton bollworms,5%
"CCCS(=O)(=O)NN1CC(C)=NNC1=O [Ia-3, N-(6-methyl-3-oxo-2,3-dihydro-1,2,4-triazin-4(5H)-yl)-n-propylsulfonamide]",inhibition of growth at 50 mg/kg,Cucumber fusarium wilt,0%
same,inhibition of growth at 50 mg/kg,[1],26.3%
same,inhibition at 50 mg/kg,Tomato early blight; [6],0%
same,inhibition at 50 mg/kg,Wheat head blight,3.3%
same,inhibition at 50 mg/kg,Rice bakanae disease,16.7%
same,inhibition of growth at 50 mg/kg,Sclerotinia rot of colza,35%
same,inhibition at 50 mg/kg,Apple ring rot,0%
same,inhibition of growth at 50 mg/kg,[2],24.5%
same,inhibition at 50 mg/kg,Wheat sheath blight,47.7%
same,inhibition at 50 mg/kg,[3],16.7%
same,inhibition at 50 mg/kg,Watermelon anthracnose,12.5%
same,inhibition of growth at 50 mg/kg,Potato late blight,22.2%
same,inhibition at 50 mg/kg,Rice sheath blight,14.3%
same,Mortalities (%) Armyworms,Armyworms,25%
same,mortality at 600 mg/kg,Maize borers,20%
same,mortality at 10 mg/kg,[4],55%
same,mortality at 10 mg/kg,[5],40%
same,mortality at 100 mg/kg,[5],75%
same,mortality at 600 mg/kg,[5],95%
same,mortality at 600 mg/kg,Cotton bollworms,10%
"CC1=NNC(=O)N(NS(=O)(=O)C2CC2)C1 [Ia-5, N-(6-methyl-3-oxo-2,3-dihydro-1,2,4-triazin-4(5H)-yl)-cyclopropylsulfonamide]",inhibition of growth at 50 mg/kg,Cucumber fusarium wilt,8.8%
same,inhibition of growth at 50 mg/kg,[1],8%
same,inhibition at 50 mg/kg,Tomato early blight; [6],14.9%
same,inhibition at 50 mg/kg,Wheat head blight,10.8%
same,inhibition at 50 mg/kg,Rice bakanae disease,20.7%
same,inhibition of growth at 50 mg/kg,Sclerotinia rot of colza,21%
same,inhibition at 50 mg/kg,Apple ring rot,10.8%
same,inhibition of growth at 50 mg/kg,[2],5.6%
same,inhibition at 50 mg/kg,Wheat sheath blight,8.7%
same,inhibition at 50 mg/kg,[3],18.7%
same,inhibition at 50 mg/kg,Watermelon anthracnose,16.4%
same,inhibition of growth at 50 mg/kg,Potato late blight,64.5%
same,inhibition at 50 mg/kg,Rice sheath blight,19.8%
same,Mortalities (%) Armyworms,Armyworms,10%
same,mortality at 600 mg/kg,Maize borers,10%
same,mortality at 10 mg/kg,[4],10%
same,mortality at 10 mg/kg,[5],30%
same,mortality at 100 mg/kg,[5],85%
same,mortality at 600 mg/kg,[5],100%
same,mortality at 600 mg/kg,Cotton bollworms,15%
"CC1=NNC(=O)N(NS(=O)(=O)C2CCCCC2)C1 [Ia-6, N-(6-methyl-3-oxo-2,3-dihydro-1,2,4-triazin-4(5H)-yl)-cyclohexylsulfonamide]",inhibition of growth at 50 mg/kg,Cucumber fusarium wilt,20.6%
same,inhibition of growth at 50 mg/kg,[1],13%
same,inhibition at 50 mg/kg,Tomato early blight; [6],12.9%
same,inhibition at 50 mg/kg,Wheat head blight,10.9%
same,inhibition at 50 mg/kg,Rice bakanae disease,12.5%
same,inhibition of growth at 50 mg/kg,Sclerotinia rot of colza,31.6%
same,inhibition at 50 mg/kg,Apple ring rot,39.2%
same,inhibition of growth at 50 mg/kg,[2],18.8%
same,inhibition at 50 mg/kg,Wheat sheath blight,30.9%
same,inhibition at 50 mg/kg,[3],7.7%
same,inhibition at 50 mg/kg,Watermelon anthracnose,12.5%
same,inhibition of growth at 50 mg/kg,Potato late blight,3.1%
same,inhibition at 50 mg/kg,Rice sheath blight,11.6%
same,Mortalities (%) Armyworms,Armyworms,50%
same,mortality at 600 mg/kg,Maize borers,40%
same,mortality at 10 mg/kg,[4],70%
same,mortality at 100 mg/kg,[5],45%
same,mortality at 600 mg/kg,[5],85%
same,mortality at 600 mg/kg,Cotton bollworms,30%
"CC1=NNC(=O)N(NS(=O)(=O)Cc2ccccc2)C1 [Ia-7, N-(6-methyl-3-oxo-2,3-dihydro-1,2,4-triazin-4(5H)-yl)-phenylmethylsulfonamide]",inhibition of growth at 50 mg/kg,Cucumber fusarium wilt,0%
same,inhibition of growth at 50 mg/kg,[1],15.8%
same,inhibition at 50 mg/kg,Tomato early blight,33.3%
same,inhibition at 50 mg/kg,Wheat head blight,30%
same,inhibition at 50 mg/kg,Rice bakanae disease,38.9%
same,inhibition of growth at 50 mg/kg,Sclerotinia rot of colza,31.7%
same,inhibition at 50 mg/kg,Apple ring rot,41.4%
same,inhibition of growth at 50 mg/kg,[2],36.7%
same,inhibition at 50 mg/kg,Wheat sheath blight,63.6%
same,inhibition at 50 mg/kg,[3],20.8%
same,inhibition at 50 mg/kg,Watermelon anthracnose,20.8%
same,inhibition of growth at 50 mg/kg,Potato late blight,33.3%
same,inhibition at 50 mg/kg,Rice sheath blight,30.2%
same,Mortalities (%) Armyworms,Armyworms,0%
same,mortality at 600 mg/kg,Maize borers,0%
same,mortality at 10 mg/kg,[4],70%
same,mortality at 10 mg/kg,[5],20%
same,mortality at 100 mg/kg,[5],75%
same,mortality at 600 mg/kg,[5],100%
same,mortality at 600 mg/kg,Cotton bollworms,35%
"CC1=NNC(=O)N(NS(=O)(=O)c2cccc3ccccc23)C1 [Ia-8, N-(6-methyl-3-oxo-2,3-dihydro-1,2,4-triazin-4(5H)-yl)-naphthyl-1-sulfonamide]",inhibition of growth at 50 mg/kg,Cucumber fusarium wilt,20.5%
same,inhibition of growth at 50 mg/kg,[1],19.2%
same,inhibition at 50 mg/kg,Tomato early blight; [6],20%
same,inhibition at 50 mg/kg,Wheat head blight,33.3%
same,inhibition at 50 mg/kg,Rice bakanae disease,7.4%
same,inhibition of growth at 50 mg/kg,Sclerotinia rot of colza,16.7%
same,inhibition at 50 mg/kg,Apple ring rot,0%
same,inhibition of growth at 50 mg/kg,[2],26.9%
same,inhibition at 50 mg/kg,Wheat sheath blight,30.2%
same,inhibition at 50 mg/kg,[3],8.3%
same,inhibition at 50 mg/kg,Watermelon anthracnose,0%
same,inhibition of growth at 50 mg/kg,Potato late blight,28.6%
same,inhibition at 50 mg/kg,Rice sheath blight,17.9%
same,Mortalities (%) Armyworms,Armyworms,10%
same,mortality at 600 mg/kg,Maize borers,0%
same,mortality at 10 mg/kg,[4],15%
same,mortality at 10 mg/kg,[5],25%
same,mortality at 100 mg/kg,[5],85%
same,mortality at 600 mg/kg,[5],90%
same,mortality at 600 mg/kg,Cotton bollworms,0%
